Key:
[1] = tested on: Tg2576 mice; settings: T-maze spontaneous alternation and Nest building tests [17]; cited from earlier work
[2] = tested on: IDE; settings: murine microglial cells [17]; cited from earlier work
[3] = mice [17]; cited from earlier work
[4] = tested on: rat primary microglia; experiment: Clearance of 125I-labeled oligomeric Aβ1-42 by rat primary microglia; assay type: cell-based
Excerpt: (§1) Primary microglia (type 1) were harvested from primary mixed glial cell cultures prepared from neonatal Wistar rat pups, as previously reported. Mouse microglial cell line MG5 and mouse glial cell line A1 were maintained as previously described. Mouse neuroblastoma cell line N1E-115 and Neuro 2a (American Type Culture Collection, Manassas, Va., USA) were maintained in Dulbecco's modified Eagle's medium (DMEM) supplemented with 10% fetal bovine serum (FBS), 20 U/ml penicillin (Invitrogen, Gaithersburg, Md., USA), and 20 μg/ml streptomycin (Invitrogen). Primary rat microglia were treated with Am80 (5 μM) and/or HX630 (5 μM) in the presence and absence of GW9662 (10 μM) for 48 h in Eagle's MEM supplemented with 10% FBS and 0.2% glucose. MG5 cells and A1 cells were treated with Am80 (5 μM) and/or HX630 (5 μM) for 48 h in DMEM containing 10% FBS. N1E-115 cells were treated with Am80 (5 μM) and/or HX630 (5 μM) for 5 days in DMEM containing 2% FBS.
^125I-Labeled oligomeric Aβ1-42 (o-Aβ1-42) was prepared as described. Cells were cultured in 24-well plates for 48 h in Eagle's MEM supplemented with 10% FBS in the presence or absence of Am80 (5 μM) and HX630 (5 μM). After the 48-h treatment, the cells were washed twice with labeling medium (DMEM containing 3% BSA) and then incubated with ^125I-labeled o-Aβ1-42 for 6 h at 37° C. Following the 6-h incubation, medium was removed from each well, and soluble radioactivity in TCA (degraded and extracellularly released peptide fragments) was determined as an index of Aβ degradation in the medium as described previously. The Aβ degradation activity may thus include both receptor-mediated phagocytic activity and extracellular protease-mediated degradation. Cells were washed three times with PBS, then lysed with 0.4 ml of 0.1 M NaOH for 30 min at 37° C., and cell-associated (including cell-incorporated) radioactivity and cell proteins were determined with an autogamma counter and the BCA Protein Assay Reagent (Pierce), respectively. We could not determine the activity of IDE-dependent degradation in this medium, because the incubation medium was replaced with labeling medium prior to incubation with ^[…].

[5] = tested on: CD36; experiment: Immunoblot of CD36 in rat primary microglia; assay type: cell-based; settings: rat primary microglia; co-incubation of GW9662 (10 μM) with HX630 (5 μM), 48 h
Excerpt: as §1, with “N1E-115 cells were treated with Am80 (5 μM) and/or HX630 (5 μM) for 5 days in DMEM containing 2% FBS.” left out
Rat primary microglia and mouse microglial MG5 cells (5×10^6 cells per 100-mm dish) were homogenized in RIPA buffer [10 mM Hepes-NaOH (pH 7.4) containing 150 mM NaCl, 1 mM EDTA, 1% Triton X-100, 0.5% sodium deoxycholate, 0.1% SDS, 1 mM PMSF, 1 mg/ml leupeptin. […] Bound horseradish peroxidase-labeled antibodies were then detected via chemiluminescence (an ECL kit; Pierce, Rockford, Ill., USA). Protein concentrations were determined with the BCA Protein Assay Reagent (Pierce) and Bradford Protein Assay Reagent (Pierce).

[6] = tested on: RARβ and IL-4Rα mRNAs; settings: murine dendritic cells [66]; cited from earlier work
[7] = tested on: APP/PS1 mice; settings: cited from earlier work
[8] = tested on: RXR; settings: 20 mg/kg; RXR-specific reporter transgene [48]; cited from earlier work
[9] = tested on: TNF-α; settings: in vitro, Aβ peptide-activated [72]; cited from earlier work
[10] = tested on: nitric oxide production; settings: in vitro [72, 73]; cited from earlier work
[11] = tested on: RARs; settings: at higher concentrations [49]; cited from earlier work

Molecule: CC1(C)CCC(C)(C)c2cc(C(=O)Nc3ccc(C(=O)O)cc3)ccc21 [Am580, 4-{(5,6,7,8-tetrahydro5,5,8,8-tetramethyl-2-naphthalenyl)carboxamido}benzoic acid]
- cognitive deficits in Tg2576 mice [1]: ameliorated cognitive deficits
- IDE activity in the medium [2]: increased
- crossing of the BBB [3]: crosses the BBB

Molecule: fucoidan
- effect on the HX630- and Am80/HX630-induced increase of o-Aβ1-42 degradation activity ([4]; fucoidan 100 μg/ml): inhibited

Molecule: O=C(Nc1ccccc1)c1cc([N+](=O)[O-])ccc1Cl [GW9662]
- effect on the HX630-induced increase in CD36 expression [5]: inhibited

Molecule: CC1=C(/C=C/C(C)=C/C=C/C(C)=C/C(=O)O)C(C)(C)CCC1 [ATRA, all trans retinoic acid]
- mRNAs encoding RARβ and IL-4Rα [6]: markedly increased
- memory function in APP/PS1 mice ([7]; ATRA alone [14]): improved memory function
- activation of RXR in vivo [8]: activates RXR
- inhibitory effect on TNF-α production [9]: 40-50%
- inhibition of nitric oxide production [10]: complete inhibition

Molecule: insulin: an IDE inhibitor
- effect on cell-association and degradation activities in Am80/HX630-treated cells ([4]; insulin 100 μg/ml): inhibited

Molecule: O=C(O)CNC(=O)C(CS)Cc1ccccc1 (centres unmarked) [thiorphan]
- effect on degradation activity in Am80/HX630-treated cells ([4]; thiorphan 30 μM): did not affect

Molecule: C=C(c1ccc(C(=O)O)cc1)c1cc2c(cc1C)C(C)(C)CCC2(C)C [bexarotene]
- cross-reactivity with RARs [11]: cross-reactivity
- behavioral defects in APP/PS1 mice ([7]; mouse, in vivo): improved behavioral defects

Reference: patent US9861640B2, “Medicament for treatment of Alzheimer's disease” (KEMPHYS LTD., priority 2013, dated 2018)
